Source: US6967196B1, “Sulfonamide compounds and uses thereof” (Bristol-Myers Squibb Company, priority 1999, dated 2005)
Where a name gives a salt, the structure may show the parent alone. Read-outs that look alike come from different tables or passages of the source. Each block holds one molecule with its values, some of them ahead of it.

Tested on: amyloid β production in transfected H4 (human neuroglioma) cells stably expressing APP constructs
Assay: In vitro cell-based assay of inhibitors of amyloid β production (ELISA)
Details: amyloid β in medium by ELISA, read-out: ACTIVITY (IC50, inhibition of amyloid β production)
Experimental: In Vitro Cell-Based Assay of Inhibitors of Amyloid β Production
Transfected H4 (human neuroglioma) cells stably expressing APP constructs are used to identify and assess inhibitors of Aβ production. In brief, cells lines are exposed to compounds, and the effect of each compound on amyloid β production is determined by measuring the amount of amyloid β produced using an enzyme linked immunosorbent assay (ELISA) that detects amyloid β (see, for example, Seubert et al., (1992) Nature, 359:325-327).
Transfected cells that stably express wild-type and variant forms of APP are plated in 96-well format plates at a density sufficient for the rapid detection of the secreted amyloid β (experimentally predetermined for a particular stable cell population). Cells are plated at least six hours prior to the introduction of the test compound at which time the growth medium is replaced by fresh medium containing the compound to be tested. All synthetic agents are initially screened at doses ranging from 10-100 μM. Higher dilutions of agents can be used to minimize cytotoxicity. Incubation of cells with a test compound continues for approximately 16 hours at which time aliquots of medium from each well are removed and assayed for amyloid β.
ELISA is carried out by methods known in the art (see, e.g., Haass et al., Antibodies: A Laboratory Manual, Harlow and lane, Editors, Cold Spring Harbor Press, 1988) The capture antibody is typically a mouse monoclonal (IgG1/kβ-APPa) which recognizes the carboxyl terminal epitope of amyloid β. The specificity of the capture antibody insures measurement of amyloid β without interference from other secreted APP fragments that share amino acid sequence (amyloid β 1-16) homology with amyloid β but lack the carboxy-terminal region. The detecting antibody is typically an affinity-purified rabbit polyclonal antibody that is specific for the amino terminus of amyloid β.
Results from test compounds are compared to results obtained when cells are treated with control agents. Amyloid β levels are determined by comparison to a standard curve obtained by subjecting a range of known amounts of amyloid β to the ELISA.
A compound is identified as “active” when it inhibits cellular production of amyloid β relative to levels in control samples by at least 50% at the initial tested concentration without significant cytotoxicity. Active compounds are then assayed in dose-response experiments to determine the lowest dose of compound necessary for inhibition of amyloid β production.

[1] = Homo sapiens, 16 h, transfected H4 cells stably expressing APP, approximately 16 hours incubation
[2] = transfected H4 cells stably expressing APP, approximately 16 hours incubation, Table B
[3] = transfected H4 cells stably expressing APP, approx. 16 h incubation
[4] = transfected H4 cells stably expressing APP, approximately 16 hours incubation
[5] = Homo sapiens, 16 h, transfected H4 cells expressing APP, approximately 16 hours incubation
[6] = transfected H4 cells stably expressing APP constructs, approximately 16 hours incubation
[7] = Homo sapiens, 16 h, transfected H4 cells stably expressing APP constructs, approximately 16 hours incubation

Molecule: CC(c1ccccc1OCCCN(C)C(=O)c1cccnc1)N(c1cc(F)ccc1F)S(=O)(=O)c1ccc(Cl)cc1 (stereo not drawn) [Example 360, N-{3-[2-(1-{[(4-chlorophenyl)sulfonyl]-2,5-difluoroanilino}ethyl)phenoxy]propyl}-N-methylnicotinamide]
- IC50 [2]: 0.05 to 0.1 µM

Molecule: CC(c1ccccc1OCCCN(C)C(=O)CCC1CCCC1)N(c1cc(F)ccc1F)S(=O)(=O)c1ccc(Cl)cc1 (stereo not drawn) [Example 428, N-{3-[2-(1-{[(4-chlorophenyl)sulfonyl]-2,5-difluoroanilino}ethyl)phenoxy]propyl}-3-cyclopentyl-N-methylpropanamide]
- IC50 (Homo sapiens, 16 h, transfected H4 cells stably expressing APP, approximately 16 hours incubation, Table B): 0.05 to 0.1 µM

Molecule: C[C@H](C(=O)NCCCN1CCOCC1)N(c1cc(Cl)ccc1F)S(=O)(=O)c1ccc(Cl)cc1 [Example 1322]
- IC50 [5]: > 0.5 µM

Molecule: (2R, 3R)-2,4-bis[(4-methylbenzoyl)oxy]butanedioic acid compound with 4-chloro-N-(2,5-difluorophenyl)-N-((1R)-1-{2-[3-(1H-imidazol-1- [Example 1049]
- IC50 [4]: > 0.5 µM

Molecule: tert-butyl 4-{3-[2-({[(4-chlorophenyl)sulfonyl]anilino}methyl)phenoxy]propyl}-1-piperazinecarboxylate hydrochloride [Example 1028]
- IC50 [4]: > 0.5 µM

Molecule: CCN(CCCn1ccnc1)C(=O)OC[C@@H](C)N(c1cc(Cl)ccc1Cl)S(=O)(=O)c1ccc(Cl)cc1 [Example 1247, 4-Chloro-N-(2,5-dichlorophenyl)-N-[2-[[[N′-[3-(1H-imidazol-1-yl)propyl]-N′-ethylamino]carbonyl]oxy]-(R)-1-methylethyl]benzenesulfonamide]
- IC50 [6]: ≤ 0.025 µM

Molecule: N-{3-[2-(1-{[(4-chlorophenyl)sulfonyl]-2,5-difluoroanilino}ethyl)phenoxy]propyl}-4-(trifluoromethoxy)benzamide [Example 920]
- IC50 [4]: > 0.5 µM

Molecule: C[C@H](C(=O)NCCCCO)N(c1cc(Cl)ccc1F)S(=O)(=O)c1ccc(Cl)cc1 [Example 1360]
- IC50 [5]: 0.1 to 0.5 µM

Molecule: CC(C)C[C@H](NC(=O)CCCC[C@@H](C)N(c1cc(Cl)ccc1F)S(=O)(=O)c1ccc(Cl)cc1)C(=O)O [Example 548, (R)-4-Chloro-N-(5-chloro-2-fluorophenyl)-N-[6-[N-(S)-[1-(carboxy)-3-methylbutyl]amino]-1-methyl-6-oxohexyl]benzenesulfonamide]
- IC50 [3]: 0.1 to 0.5 µM

Molecule: O=S(=O)(c1ccc(Cl)cc1)N(Cc1ccccc1OCCCN1CCC(O)CC1)c1ccccc1 [Example 645, 4-chloro-N-{2-[3-(4-hydroxy-1-piperidinyl)propoxy]benzyl}-N-phenylbenzenesulfonamide hydrochloride]
- IC50 (Homo sapiens, 16 h, transfected H4 cells stably expressing APP, approx. 16 h incubation): 0.1 to 0.5 µM

Molecule: CC[S+]([O-])CCC[C@@H](C)N(c1cc(Cl)ccc1Cl)S(=O)(=O)c1ccc(Cl)cc1 (stereo partly drawn) [Example 1172, 4-chloro-N-[2,5-dichlorophenyl]-N-[1(R)-methyl-(4-ethylsulfinyl)butyl]benzenesulfonamide]
- IC50 [6]: ≤ 0.025 µM

Molecule: C[C@H](CCC[S+](C)[O-])N(c1cc(Cl)ccc1Cl)S(=O)(=O)c1ccc(Cl)cc1 (stereo partly drawn) [Example 1171, 4-chloro-N-[2,5-dichlorophenyl]-N-[1(R)-methyl-(4-methylsulfinyl)butyl]benzenesulfonamide]
- IC50 [6]: ≤ 0.025 µM

Molecule: CN(CCCOc1ccccc1CN(c1cc(F)ccc1F)S(=O)(=O)c1ccc(Cl)cc1)C(=O)c1ccc(-c2ccccc2)cc1 [Example 752, N-{3-[2-({[(4-chlorophenyl)sulfonyl]-2,5-difluoroanilino}methyl)phenoxy]propyl}-N-methyl[1,1′-biphenyl]-4-carboxamide]
- IC50 [3]: 0.1 to 0.5 µM

Molecule: CN1CCCC1CCOc1ccccc1CN(c1ccccc1)S(=O)(=O)c1ccc(Cl)cc1 (stereo not drawn) [Example 277, 4-Chloro-N-{2-[2-(1-methyl-2-pyrrolidinyl)ethoxy]benzyl}-N-phenylbenzenesulfonamide Hydrochloride]
- IC50 [2]: 0.025 to 0.05 µM

Molecule: C[C@H](CCCCN1CCC(S(C)(=O)=O)CC1)N(c1cc(Cl)ccc1Cl)S(=O)(=O)c1ccc(Cl)cc1 [Example 1123, 4-chloro-N-(2,5-dichlorophenyl)-N-[5-[(4-methylsulfonyl)-1-piperidinyl]-1(R)-methylpentyl]benzenesulfonamide]
- IC50 [6]: 0.05 to 0.1 µM

The next lines start with the values.

- IC50 [1]: > 0.5 µM
Molecule: O=S(=O)(c1ccc(Cl)cc1)N(Cc1ccccc1C#CCn1ccnc1)c1cc(F)ccc1F [Example 1051, 4-chloro-N-(2,5-difluorophenyl)-N-{2-[3-(1H-imidazol-1-yl)-1-propynyl]benzyl}benzenesulfonamide hydrochloride]

- IC50 [3]: 0.1 to 0.5 µM
Molecule: N-{3-[2-(1-{[(4-chlorophenyl)sulfonyl]-2,5-difluoroanilino}ethyl)phenoxy]propyl}-2,5-bis(trifluoromethyl)benzamide [Example 736]

- IC50 [1]: > 0.5 µM
Molecule: O=S(=O)(c1ccc(Cl)cc1)N(Cc1ccccc1OCCCN1CCCCC1)Cc1c(F)c(F)c(F)c(F)c1F [Example 974, 4-chloro-N-(2,3,4,5,6-pentafluorobenzyl)-N-{2-[3-(1-piperidinyl)propoxy]benzyl}benzenesulfonamide hydrochloride]

- IC50 [4]: > 0.5 µM
Molecule: N-{3-[2-(1-{[(4-chlorophenyl)sulfonyl]-2,5-difluoroanilino}ethyl)phenoxy]ethyl}-N-methyl-3,5-bis(trifluoromethyl)benzamide [Example 931]

- IC50 [1]: > 0.5 µM
Molecule: O=S(=O)(c1ccc(Cl)cc1)N(Cc1ccccc1OCCCN1CCCCC1)C1Cc2ccccc2C1 [Example 1020, 4-chloro-N-(2,3-dihydro-1H-inden-2-yl)-N-{2-[3-(1-piperidinyl)propoxy]benzyl}benzenesulfonamide hydrochloride]

- IC50 [3]: 0.1 to 0.5 µM
Molecule: N-{3-[2-(1-{[(4-chlorophenyl)sulfonyl]-2,5-difluoroanilino}ethyl)phenoxy]propyl}-N,2-dimethylbenzamide [Example 693]

- IC50 [7]: 0.1 to 0.5 µM
Molecule: C[C@H](CCCS(=O)(=O)O)N(c1cc(Cl)ccc1Cl)S(=O)(=O)c1ccc(Cl)cc1 [Example 1194, (4R)-4-[N-[2,5-dichlorophenyl][(4-chlorophenyl)sulfonyl]amino]pentylsulfonic acid]

- IC50 [3]: 0.1 to 0.5 µM
Molecule: N-{3-[2-({[(4-chlorophenyl)sulfonyl]-2,5-difluoroanilino}methyl)phenoxy]propyl}-N,2-dimethylbenzamide [Example 680]

- IC50 [2]: 0.025 to 0.05 µM
Molecule: 2-((1R)-1-{[(4-chlorophenyl)sulfonyl]-2,5-difluoroanilino}ethyl)benzyl 1-piperidinecarboxylate [Example 284]

- IC50 [3]: 0.1 to 0.5 µM
Molecule: N-{4-[2-(1-{[(4-chlorophenyl)sulfonyl]-2,5-difluoroanilino}ethyl)phenoxy]butyl}-N-ethylbenzamide [Example 767]

- IC50 [4]: > 0.5 µM
Molecule: 1-{3-[2-({[(4-chlorophenyl)sulfonyl]-2,5-difluoroanilino}methyl)phenoxy]propyl}-1-methylpiperidinium iodide [Example 1037]

- IC50 [3]: 0.1 to 0.5 µM
Molecule: N-{3-[2-(1-{[(4-chlorophenyl)sulfonyl]-2,5-difluoroanilino}ethyl)phenoxy]propyl}-N-methyl-3-(trifluoromethyl)benzamide [Example 657]

- IC50 [4]: > 0.5 µM
Molecule: O=C(/C=C/c1ccccc1CN(c1ccccc1)S(=O)(=O)c1ccc(Cl)cc1)N1CCCC1 [Example 923]

- IC50 [2]: 0.025 to 0.05 µM
Molecule: CC(C)(C)OC(=O)N1CCN(CCCOc2ccccc2CN(c2ccccc2)S(=O)(=O)c2ccc(Cl)cc2)CC1 [Example 288, Tert-butyl 4-{3-[2-({[(4 chlorophenyl)sulfonyl}anilino}methyl)phenoxy]propyl}-1-piperazinecarboxylate]

- IC50 [7]: ≤ 0.025 µM
Molecule: CNS(=O)(=O)CCC[C@@H](C)N(c1cc(Cl)ccc1F)S(=O)(=O)c1ccc(Cl)cc1 [Example 1203, 4-chloro-N-(5-chloro-2-fluorophenyl)-N-[4-[(methylamino)sulfonyl]-1(R)-methylbutyl]benzenesulfonamide]
